In patent publication US12252524B2, “GIP/GLP1 co-agonist compounds” (Eli Lilly and Company, priority 2018, dated 2025):
Numbered stars: 1 amine (or outer) side, 2 acyl side, 3 side chain; on linkers, the order of the positions; unused ones are H or OH. Square brackets hold non-standard residues; d marks the D form. Side chains are listed from the residue outwards. Peptide text beside a SMILES is read from it. * marks the point of attachment. C20 diacid = O=C(O)CCCCCCCCCCCCCCCCCCC(=O)*; C18 diacid = O=C(O)CCCCCCCCCCCCCCCCC(=O)*; αMePhe(2-F) = C[C@](N)(Cc1ccccc1F)C(=O)O; γGlu = O=C(O)[C@H](CCC(=O)[*:2])N[*:1]; 4Pal = N[C@@H](Cc1ccncc1)C(=O)O; αMeL = CC(C)C[C@](C)(N)C(=O)O; Orn = NCCC[C@H](N)C(=O)O; Dab = NCC[C@H](N)C(=O)O; AEEA = NCCOCCOCC(=O)O; Aib = CC(C)(N)C(=O)O

Columns and labels:
human Gcg receptor = target: T1, human Gcg receptor (Homo sapiens, UniProt P47871); test: [125I]-Glucagon binding (SPA), human Gcg receptor; settings: read-out: hGLcgR Ki, nM (SEM, n)
T1 construct: expressed in transfected cells; crude membranes
T1 sequence (P47871 26-477): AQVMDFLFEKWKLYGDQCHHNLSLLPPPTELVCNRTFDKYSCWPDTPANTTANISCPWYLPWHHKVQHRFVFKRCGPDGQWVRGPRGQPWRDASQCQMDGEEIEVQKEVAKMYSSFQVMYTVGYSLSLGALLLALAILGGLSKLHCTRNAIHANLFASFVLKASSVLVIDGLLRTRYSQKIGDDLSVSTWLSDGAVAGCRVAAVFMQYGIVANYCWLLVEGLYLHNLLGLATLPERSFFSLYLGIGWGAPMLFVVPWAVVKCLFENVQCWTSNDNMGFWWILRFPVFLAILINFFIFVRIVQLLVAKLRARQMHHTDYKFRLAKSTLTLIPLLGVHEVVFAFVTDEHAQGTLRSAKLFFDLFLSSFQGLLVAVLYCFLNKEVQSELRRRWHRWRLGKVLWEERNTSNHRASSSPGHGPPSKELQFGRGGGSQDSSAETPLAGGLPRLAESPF
How it was run: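 Scintillation counts are taken after membranes and WGA beads incubate and settle for 12 hours at room temperature. Buffer is 25 mM HEPES, pH 7.4, with CaCl2, MgCl2, bacitracin and Tween-20. Ki values, from four-parameter IC50 fits, are geometric means over independent days.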

human GIP receptor = target: T2, human GIP receptor (Homo sapiens, UniProt P48546); test: [125I]-GIP binding (SPA), human GIP receptor; settings: read-out: hGIPR Ki, nM (SEM, n)
T2 construct: expressed in transfected cells; crude membranes
T2 sequence (P48546 22-466): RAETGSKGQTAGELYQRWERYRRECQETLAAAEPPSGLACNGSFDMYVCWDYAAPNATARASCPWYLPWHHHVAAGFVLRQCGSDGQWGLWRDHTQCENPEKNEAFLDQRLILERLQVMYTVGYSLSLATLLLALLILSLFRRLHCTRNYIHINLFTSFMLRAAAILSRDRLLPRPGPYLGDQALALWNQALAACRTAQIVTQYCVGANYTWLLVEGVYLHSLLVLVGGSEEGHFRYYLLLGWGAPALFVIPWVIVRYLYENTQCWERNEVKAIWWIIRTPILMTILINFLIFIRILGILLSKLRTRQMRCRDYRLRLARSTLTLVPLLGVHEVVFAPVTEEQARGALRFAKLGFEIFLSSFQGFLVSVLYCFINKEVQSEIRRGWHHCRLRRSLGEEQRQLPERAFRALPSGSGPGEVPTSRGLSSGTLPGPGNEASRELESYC

[1] = target: human GLP-1 receptor (GLP-1R) (Homo sapiens, UniProt P43220); test: cAMP pharmacological functional assay in presence of casein, hGLP-1R; type: cell-based; settings: HEK293 cells expressing hGLP-1R, 0.1% Casein, geometric mean; read-out: hGLP1R cAMP Rel EC50 nM (SEM, n)
human GLP-1 receptor (GLP-1R), sequence (P43220 24-463): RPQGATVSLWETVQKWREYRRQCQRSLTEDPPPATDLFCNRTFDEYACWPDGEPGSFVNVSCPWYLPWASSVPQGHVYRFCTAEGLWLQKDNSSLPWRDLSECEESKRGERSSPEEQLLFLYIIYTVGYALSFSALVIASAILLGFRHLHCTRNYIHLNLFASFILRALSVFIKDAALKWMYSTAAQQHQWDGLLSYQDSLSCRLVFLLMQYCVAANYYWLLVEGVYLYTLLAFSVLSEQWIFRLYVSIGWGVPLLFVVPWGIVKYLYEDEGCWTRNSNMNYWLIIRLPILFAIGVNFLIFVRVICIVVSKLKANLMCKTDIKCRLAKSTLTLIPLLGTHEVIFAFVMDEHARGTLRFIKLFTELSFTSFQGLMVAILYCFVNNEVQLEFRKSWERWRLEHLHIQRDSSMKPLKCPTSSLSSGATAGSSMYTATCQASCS

[2] = target: T3, gastric inhibitory peptide receptor (GIPR) (Homo sapiens, UniProt P48546); test: cAMP pharmacological functional assay in presence of casein, hGIPR; type: cell-based; settings: HEK293 cells expressing hGIPR, 0.1% Casein, geometric mean; read-out: hGIPR cAMP Rel EC50 nM (SEM, n)
T3 sequence (P48546 22-466): T2 sequence (P48546 22-466)

human GLP-1R = human GLP-1R (Homo sapiens, UniProt P43220); test: [125I]-GLP-1 binding (SPA), human GLP-1 receptor; set-up: expressed in transfected cells; crude membranes; settings: read-out: hGLP1R Ki, (nM) (SEM, n)
human GLP-1R, sequence (P43220 24-463): as above
How it was run: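 Ki values are geometric means with SEM over independent replicates on different days, derived from IC50s fitted by four-parameter nonlinear regression. The assay used crude cell membranes in HEPES buffer, pH 7.4, containing CaCl2, MgCl2, bacitracin and TWEEN-20.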

Structure (SMILES) | Ki (human Gcg receptor) | Ki (human GIP receptor) | EC50 [1] | EC50 [2] | Ki (human GLP-1R)
CC[C@H](C)[C@H](NC(=O)[C@H](CC(C)C)NC(=O)[C@H](Cc1ccc(O)cc1)NC(=O)[C@@H](CCC(=O)O)NC(=O)[C@@H](NC(=O)[C@H](Cc1ccccc1)NC(=O)[C@H](CCC(=O)O)NC(=O)C(C)(C)NC(=O)[C@H](CCC(N)=O)NC(=O)[C@H](C)NC(=O)[C@H](CCCCNC(=O)COCCOCCNC(=O)COCCOCCNC(=O)CC[C@H](NC(=O)CCCCCCCCCCCCCCCCCCC(=O)O)C(=O)O)NC(=O)[C@H](Cc1c[nH]cn1)NC(=O)[C@H](CC(=O)O)NC(=O)[C@H](CC(C)C)NC(=O)[C@](C)(CC(C)C)NC(=O)[C@@H](NC(=O)[C@H](CO)NC(=O)[C@H](Cc1ccc(O)cc1)NC(=O)[C@H](CC(=O)O)NC(=O)[C@H](CO)NC(=O)[C@@H](NC(=O)[C@](C)(Cc1ccccc1F)NC(=O)[C@@H](NC(=O)CNC(=O)[C@H](CCC(=O)O)NC(=O)C(C)(C)NC(=O)[C@@H](N)Cc1ccc(O)cc1)[C@@H](C)O)[C@@H](C)O)[C@@H](C)CC)[C@@H](C)CC)C(=O)N[C@@H](CCC(=O)O)C(=O)NCC(=O)NCC(=O)N1CCC[C@H]1C(=O)N[C@@H](CO)C(=O)N[C@@H](CO)C(=O)NCC(=O)N[C@@H](C)C(=O)N1CCC[C@H]1C(=O)N1CCC[C@H]1C(=O)N1CCC[C@H]1C(=O)N[C@@H](CO)C(N)=O [Example 230] (H-Y[Aib]EGT[αMePhe(2-F)]TSDYSI[αMeL]LDHK([AEEA-AEEA-γGlu-C20 diacid])AQ[Aib]EFI[dE]YLIEGGPSSGAPPPS-NH2) | 494 nM | 0.042 nM | 0.0491 nM | 0.0431 nM | 4.68 nM
CC[C@H](C)[C@H](NC(=O)[C@H](CC(C)C)NC(=O)[C@H](Cc1ccc(O)cc1)NC(=O)[C@@H](CCC(=O)O)NC(=O)[C@@H](NC(=O)[C@H](Cc1ccccc1)NC(=O)[C@H](CCC(=O)O)NC(=O)C(C)(C)NC(=O)[C@H](CCC(N)=O)NC(=O)[C@H](C)NC(=O)[C@H](CCCCNC(=O)COCCOCCNC(=O)COCCOCCNC(=O)CC[C@H](NC(=O)CCCCCCCCCCCCCCCCC(=O)O)C(=O)O)NC(=O)[C@H](CCCCN)NC(=O)[C@H](CC(=O)O)NC(=O)[C@H](CC(C)C)NC(=O)C(C)(CC(C)C)NC(=O)[C@@H](NC(=O)[C@H](CO)NC(=O)[C@H](Cc1ccc(O)cc1)NC(=O)[C@H](CC(=O)O)NC(=O)[C@H](CO)NC(=O)[C@@H](NC(=O)C(C)(Cc1ccccc1F)NC(=O)[C@@H](NC(=O)CNC(=O)[C@H](CCC(=O)O)NC(=O)C(C)(C)NC(=O)[C@@H](N)Cc1ccc(O)cc1)[C@@H](C)O)[C@@H](C)O)[C@@H](C)CC)[C@@H](C)CC)C(=O)N[C@@H](CCC(=O)O)C(=O)NCC(=O)NCC(=O)N1CCC[C@H]1C(=O)N[C@@H](CO)C(=O)N[C@@H](CO)C(=O)NCC(=O)N[C@@H](C)C(=O)N1CCC[C@H]1C(=O)N1CCC[C@H]1C(=O)N1CCC[C@H]1C(=O)N[C@@H](CO)C(N)=O (stereo partly shown) [Example 231] | 440 nM | 0.0394 nM | 0.0611 nM | 0.0253 nM | 3.03 nM
CC[C@H](C)[C@H](NC(=O)[C@H](CC(C)C)NC(=O)[C@H](Cc1ccc(O)cc1)NC(=O)[C@@H](CCC(=O)O)NC(=O)[C@@H](NC(=O)[C@H](Cc1ccccc1)NC(=O)[C@H](CCC(=O)O)NC(=O)C(C)(C)NC(=O)[C@H](CCC(N)=O)NC(=O)[C@H](C)NC(=O)[C@H](CCCCNC(=O)COCCOCCNC(=O)COCCOCCNC(=O)CC[C@H](NC(=O)CCCCCCCCCCCCCCCCC(=O)O)C(=O)O)NC(=O)[C@H](CCCN)NC(=O)[C@H](CC(=O)O)NC(=O)[C@H](CC(C)C)NC(=O)[C@](C)(CC(C)C)NC(=O)[C@@H](NC(=O)[C@H](CO)NC(=O)[C@H](Cc1ccncc1)NC(=O)[C@H](CC(=O)O)NC(=O)[C@H](CO)NC(=O)[C@@H](NC(=O)[C@](C)(Cc1ccccc1F)NC(=O)[C@@H](NC(=O)CNC(=O)[C@H](CCC(=O)O)NC(=O)C(C)(C)NC(=O)[C@@H](N)Cc1ccc(O)cc1)[C@@H](C)O)[C@@H](C)O)[C@@H](C)CC)[C@@H](C)CC)C(=O)N[C@@H](CCC(=O)O)C(=O)NCC(=O)NCC(=O)N1CCC[C@H]1C(=O)N[C@@H](CO)C(=O)N[C@@H](CO)C(=O)NCC(=O)N[C@@H](C)C(=O)N1CCC[C@H]1C(=O)N1CCC[C@H]1C(=O)N1CCC[C@H]1C(=O)N[C@@H](CO)C(N)=O [Example 232] (H-Y[Aib]EGT[αMePhe(2-F)]TSD[4Pal]SI[αMeL]LD[Orn]K([AEEA-AEEA-γGlu-C18 diacid])AQ[Aib]EFI[dE]YLIEGGPSSGAPPPS-NH2) | > 1150 nM | 0.0544 nM | 0.0724 nM | 0.027 nM | 5.62 nM
CC[C@H](C)[C@H](NC(=O)[C@H](CC(C)C)NC(=O)[C@H](Cc1ccc(O)cc1)NC(=O)[C@@H](CCC(=O)O)NC(=O)[C@@H](NC(=O)[C@H](Cc1ccccc1)NC(=O)[C@H](CCC(=O)O)NC(=O)C(C)(C)NC(=O)[C@H](CCC(N)=O)NC(=O)[C@H](C)NC(=O)[C@H](CCCCNC(=O)COCCOCCNC(=O)COCCOCCNC(=O)CC[C@H](NC(=O)CCCCCCCCCCCCCCCCC(=O)O)C(=O)O)NC(=O)[C@H](CCN)NC(=O)[C@H](CC(=O)O)NC(=O)[C@H](CC(C)C)NC(=O)[C@](C)(CC(C)C)NC(=O)[C@@H](NC(=O)[C@H](CO)NC(=O)[C@H](Cc1ccncc1)NC(=O)[C@H](CC(=O)O)NC(=O)[C@H](CO)NC(=O)[C@@H](NC(=O)[C@](C)(Cc1ccccc1F)NC(=O)[C@@H](NC(=O)CNC(=O)[C@H](CCC(=O)O)NC(=O)C(C)(C)NC(=O)[C@@H](N)Cc1ccc(O)cc1)[C@@H](C)O)[C@@H](C)O)[C@@H](C)CC)[C@@H](C)CC)C(=O)N[C@@H](CCC(=O)O)C(=O)NCC(=O)NCC(=O)N1CCC[C@H]1C(=O)N[C@@H](CO)C(=O)N[C@@H](CO)C(=O)NCC(=O)N[C@@H](C)C(=O)N1CCC[C@H]1C(=O)N1CCC[C@H]1C(=O)N1CCC[C@H]1C(=O)N[C@@H](CO)C(N)=O [Example 233] (H-Y[Aib]EGT[αMePhe(2-F)]TSD[4Pal]SI[αMeL]LD[Dab]K([AEEA-AEEA-γGlu-C18 diacid])AQ[Aib]EFI[dE]YLIEGGPSSGAPPPS-NH2) | > 1150 nM | 0.0445 nM | 0.0549 nM | 0.0288 nM | 5.99 nM
CC[C@H](C)[C@H](NC(=O)[C@H](CC(C)C)NC(=O)[C@H](Cc1ccc(O)cc1)NC(=O)[C@@H](CCC(=O)O)NC(=O)[C@@H](NC(=O)[C@H](Cc1ccccc1)NC(=O)[C@H](CCC(=O)O)NC(=O)C(C)(C)NC(=O)[C@H](CCC(N)=O)NC(=O)[C@H](C)NC(=O)[C@H](CCCCNC(=O)COCCOCCNC(=O)COCCOCCNC(=O)CC[C@H](NC(=O)CCCCCCCCCCCCCCCCC(=O)O)C(=O)O)NC(=O)[C@H](CCN)NC(=O)[C@H](CC(=O)O)NC(=O)[C@H](CC(C)C)NC(=O)[C@H](CC(C)C)NC(=O)[C@@H](NC(=O)[C@H](CO)NC(=O)[C@H](Cc1ccncc1)NC(=O)[C@H](CC(=O)O)NC(=O)[C@H](CO)NC(=O)[C@@H](NC(=O)[C@](C)(Cc1ccccc1F)NC(=O)[C@@H](NC(=O)CNC(=O)[C@H](CCC(=O)O)NC(=O)C(C)(C)NC(=O)[C@@H](N)Cc1ccc(O)cc1)[C@@H](C)O)[C@@H](C)O)[C@@H](C)CC)[C@@H](C)CC)C(=O)N[C@@H](CCC(=O)O)C(=O)NCC(=O)NCC(=O)N1CCC[C@H]1C(=O)N[C@@H](CO)C(=O)N[C@@H](CO)C(=O)NCC(=O)N[C@@H](C)C(=O)N1CCC[C@H]1C(=O)N1CCC[C@H]1C(=O)N1CCC[C@H]1C(=O)N[C@@H](CO)C(N)=O [Example 234] (H-Y[Aib]EGT[αMePhe(2-F)]TSD[4Pal]SILLD[Dab]K([AEEA-AEEA-γGlu-C18 diacid])AQ[Aib]EFI[dE]YLIEGGPSSGAPPPS-NH2) | > 1100 nM | 0.0563 nM | 0.0926 nM | 0.0372 nM | 10.9 nM
